Experimental data reported in patent US20030134865A1, “Modulation of histone deacetylase” (priority 2003, published 2003).

Assays:
HDAC1 [1] = test: HDAC1 expression in bronchial biopsies of treated asthmatics (Western blot); assay type: in vivo, human; settings: placebo 0.28±0.09, p<0.05
Excerpt: (§1) FIG. 16. Effect of theophylline on HDAC expression and activity in vivo. (a) Western blot analysis of HDAC1 and HDAC 2 expression in bronchial biopsies from mild asthmatic subjects treated with low dose theophylline (LDT) or placebo. (b) Graphical expression of the effect of LDT and placebo on HDAC1 and HDAC2 expression relative to β-actin. (c) Effect of LDT and P on HDAC activity in bronchial biopsies. N=14.
(§2) Western blotting: Immunoprecipitates, whole cell extractions or isolated histones were measured by SDS-PAGE and Western blot analysis using ECL (Amersham, Amersham, UK). Proteins were size-fractionated by SDS-PAGE and transferred to Hybond-ECL membranes. Specific protein bands were detected by ECL according to the manufacturer's instructions.

HDAC2 [2] = target: T1, HDAC2 (Homo sapiens, UniProt Q92769); test: Immunoprecipitated HDAC2 activity; assay type: cell-based; settings: theophylline 10^−5 M
T1 construct: endogenous in cells
T1 sequence (Q92769 whole entry): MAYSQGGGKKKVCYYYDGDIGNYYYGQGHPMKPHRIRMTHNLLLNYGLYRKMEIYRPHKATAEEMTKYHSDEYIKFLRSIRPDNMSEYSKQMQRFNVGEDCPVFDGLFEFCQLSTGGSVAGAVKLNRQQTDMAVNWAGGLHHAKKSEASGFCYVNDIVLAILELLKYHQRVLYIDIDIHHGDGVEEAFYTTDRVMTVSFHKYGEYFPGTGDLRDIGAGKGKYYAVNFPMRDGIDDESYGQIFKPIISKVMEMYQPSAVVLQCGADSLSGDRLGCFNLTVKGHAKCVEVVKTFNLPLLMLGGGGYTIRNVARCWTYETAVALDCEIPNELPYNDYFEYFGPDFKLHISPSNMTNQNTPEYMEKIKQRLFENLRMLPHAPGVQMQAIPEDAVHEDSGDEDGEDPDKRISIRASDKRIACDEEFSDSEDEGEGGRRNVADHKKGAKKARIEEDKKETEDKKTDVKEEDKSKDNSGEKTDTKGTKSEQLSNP
Excerpt: (§3) FIG. 22. Effect of theophylline on HDAC1, HDAC2 and HDAC3 activity.
(§4) Using IP-HAT assays we were able to determine which HDACs were the target for theophylline action.

HDAC activity [3] = test: Total HDAC activity in bronchial biopsies of treated asthmatics; assay type: in vivo, human; settings: placebo 67±12, p<0.05
Excerpt: as §1

[4] = Double-blind cross-over study of low dose theophylline in mild stable asthmatic subjects; settings: 5 weeks low dose theophylline
Description: Patients: Fifteen mild stable asthmatic subjects (Table 1) receiving treatment with only the inhaled β2-adrenergic agonist aerosol, albuterol, for intermittent relief of wheeze were recruited. […] All patients were atopic as defined by two or more positive skin prick tests to common allergens. […] Current smokers or ex-smokers of more than five pack years and patients with FEV1 less than 80% predicted were excluded.
Fibreoptic bronchoscopy and isolation of BAL macrophages: Subjects attended our bronchoscopy suite at 8.30 am after having fasted from midnight and were pretreated with atropine (0.6 mg iv) and midazolam (5-10 mg iv). Oxygen (31/min) was administered via nasal prongs throughout the procedure and oxygen saturation was monitored with a digital oximeter. Using local anaesthesia with lidocaine (4%) to the upper airways and larynx, a fibreoptic bronchoscope (Olympus BF10) was passed through the nasal passages into the trachea. Bronchoalveolar lavage (BAL) was performed from the right middle lobe using warmed 0.9% NaCl with 4 successive aliquots of 60 mls of 0.9% NaCl. […] Cytospins were prepared and stained with May-Grunwald stain for differential cell counts. Cell viability was assessed using trypan blue exclusion.

HDAC1 [5] = test: HDAC1 expression in A549 cells (Western blot); assay type: cell-based
Description: (§5) FIG. 12. Effect of theophylline on HDAC expression. […]. Band densities were controlled for protein loading by comparison with β-actin expression. Results are shown as relative band densities.
as §2

HDAC activity [6] = test: Direct effect on HDAC activity of nuclear proteins from untreated A549 cells; assay type: biochemical
Description: FIG. 13. […] (a) Direct effect of the PDE4 inhibitor rolipram (10 μM) and the adenosine receptor antagonist CGS-15943 (10 μM) on HDAC activity. […] (b) Direct effect of the MEK inhibitor PD089159 (1 μM) and the p38 MAPK inhibitor SB203580 on theophylline induced HDAC activity.

[7] = tested on: IL-8 release, alveolar macrophages; test: LPS-induced IL-8 release from alveolar macrophages; assay type: cell-based, human; settings: macrophages from non-smokers
[8] = tested on: HDAC activity, BAL macrophages; test: HDAC activity in BAL macrophages; assay type: cell-based, human; settings: 24 hours
[9] = tested on: GM-CSF release, A549 cells; test: GM-CSF release from A549 cells (ELISA)
Description: Determination of GM-CSF expression was measured by sandwich ELISA (Pharmingen, Lugano, Switzerland) according to the manufacturer's instructions.
GM-CSF ELISA: Determination of GM-CSF expression was measured by sandwich ELISA (Pharmingen, Lugano, Switzerland) according to the manufacturer's instructions.

[10] = tested on: HDAC activity, alveolar macrophages; test: HDAC activity in alveolar macrophages from non-smokers or smokers; settings: theophylline 10^−5 M, dexamethasone 10^−10 M
HDAC3 = target: T2, HDAC3 (Homo sapiens, UniProt O15379); test: Immunoprecipitated HDAC3 activity; assay type: cell-based; settings: theophylline 10^−5 M
T2 construct: endogenous in cells
T2 sequence (O15379 whole entry): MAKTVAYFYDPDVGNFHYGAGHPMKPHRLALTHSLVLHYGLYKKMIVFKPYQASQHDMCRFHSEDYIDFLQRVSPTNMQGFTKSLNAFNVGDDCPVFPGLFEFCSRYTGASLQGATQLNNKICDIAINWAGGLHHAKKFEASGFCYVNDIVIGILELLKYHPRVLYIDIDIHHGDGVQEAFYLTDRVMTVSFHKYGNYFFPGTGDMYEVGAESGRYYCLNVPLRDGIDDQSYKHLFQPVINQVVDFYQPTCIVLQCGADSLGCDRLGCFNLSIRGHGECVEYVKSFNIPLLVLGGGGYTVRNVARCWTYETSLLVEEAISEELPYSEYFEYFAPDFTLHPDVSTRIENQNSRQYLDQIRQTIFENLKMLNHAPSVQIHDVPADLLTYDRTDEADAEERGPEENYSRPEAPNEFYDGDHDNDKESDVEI
T2 sequence (Q9Y618 whole entry partner): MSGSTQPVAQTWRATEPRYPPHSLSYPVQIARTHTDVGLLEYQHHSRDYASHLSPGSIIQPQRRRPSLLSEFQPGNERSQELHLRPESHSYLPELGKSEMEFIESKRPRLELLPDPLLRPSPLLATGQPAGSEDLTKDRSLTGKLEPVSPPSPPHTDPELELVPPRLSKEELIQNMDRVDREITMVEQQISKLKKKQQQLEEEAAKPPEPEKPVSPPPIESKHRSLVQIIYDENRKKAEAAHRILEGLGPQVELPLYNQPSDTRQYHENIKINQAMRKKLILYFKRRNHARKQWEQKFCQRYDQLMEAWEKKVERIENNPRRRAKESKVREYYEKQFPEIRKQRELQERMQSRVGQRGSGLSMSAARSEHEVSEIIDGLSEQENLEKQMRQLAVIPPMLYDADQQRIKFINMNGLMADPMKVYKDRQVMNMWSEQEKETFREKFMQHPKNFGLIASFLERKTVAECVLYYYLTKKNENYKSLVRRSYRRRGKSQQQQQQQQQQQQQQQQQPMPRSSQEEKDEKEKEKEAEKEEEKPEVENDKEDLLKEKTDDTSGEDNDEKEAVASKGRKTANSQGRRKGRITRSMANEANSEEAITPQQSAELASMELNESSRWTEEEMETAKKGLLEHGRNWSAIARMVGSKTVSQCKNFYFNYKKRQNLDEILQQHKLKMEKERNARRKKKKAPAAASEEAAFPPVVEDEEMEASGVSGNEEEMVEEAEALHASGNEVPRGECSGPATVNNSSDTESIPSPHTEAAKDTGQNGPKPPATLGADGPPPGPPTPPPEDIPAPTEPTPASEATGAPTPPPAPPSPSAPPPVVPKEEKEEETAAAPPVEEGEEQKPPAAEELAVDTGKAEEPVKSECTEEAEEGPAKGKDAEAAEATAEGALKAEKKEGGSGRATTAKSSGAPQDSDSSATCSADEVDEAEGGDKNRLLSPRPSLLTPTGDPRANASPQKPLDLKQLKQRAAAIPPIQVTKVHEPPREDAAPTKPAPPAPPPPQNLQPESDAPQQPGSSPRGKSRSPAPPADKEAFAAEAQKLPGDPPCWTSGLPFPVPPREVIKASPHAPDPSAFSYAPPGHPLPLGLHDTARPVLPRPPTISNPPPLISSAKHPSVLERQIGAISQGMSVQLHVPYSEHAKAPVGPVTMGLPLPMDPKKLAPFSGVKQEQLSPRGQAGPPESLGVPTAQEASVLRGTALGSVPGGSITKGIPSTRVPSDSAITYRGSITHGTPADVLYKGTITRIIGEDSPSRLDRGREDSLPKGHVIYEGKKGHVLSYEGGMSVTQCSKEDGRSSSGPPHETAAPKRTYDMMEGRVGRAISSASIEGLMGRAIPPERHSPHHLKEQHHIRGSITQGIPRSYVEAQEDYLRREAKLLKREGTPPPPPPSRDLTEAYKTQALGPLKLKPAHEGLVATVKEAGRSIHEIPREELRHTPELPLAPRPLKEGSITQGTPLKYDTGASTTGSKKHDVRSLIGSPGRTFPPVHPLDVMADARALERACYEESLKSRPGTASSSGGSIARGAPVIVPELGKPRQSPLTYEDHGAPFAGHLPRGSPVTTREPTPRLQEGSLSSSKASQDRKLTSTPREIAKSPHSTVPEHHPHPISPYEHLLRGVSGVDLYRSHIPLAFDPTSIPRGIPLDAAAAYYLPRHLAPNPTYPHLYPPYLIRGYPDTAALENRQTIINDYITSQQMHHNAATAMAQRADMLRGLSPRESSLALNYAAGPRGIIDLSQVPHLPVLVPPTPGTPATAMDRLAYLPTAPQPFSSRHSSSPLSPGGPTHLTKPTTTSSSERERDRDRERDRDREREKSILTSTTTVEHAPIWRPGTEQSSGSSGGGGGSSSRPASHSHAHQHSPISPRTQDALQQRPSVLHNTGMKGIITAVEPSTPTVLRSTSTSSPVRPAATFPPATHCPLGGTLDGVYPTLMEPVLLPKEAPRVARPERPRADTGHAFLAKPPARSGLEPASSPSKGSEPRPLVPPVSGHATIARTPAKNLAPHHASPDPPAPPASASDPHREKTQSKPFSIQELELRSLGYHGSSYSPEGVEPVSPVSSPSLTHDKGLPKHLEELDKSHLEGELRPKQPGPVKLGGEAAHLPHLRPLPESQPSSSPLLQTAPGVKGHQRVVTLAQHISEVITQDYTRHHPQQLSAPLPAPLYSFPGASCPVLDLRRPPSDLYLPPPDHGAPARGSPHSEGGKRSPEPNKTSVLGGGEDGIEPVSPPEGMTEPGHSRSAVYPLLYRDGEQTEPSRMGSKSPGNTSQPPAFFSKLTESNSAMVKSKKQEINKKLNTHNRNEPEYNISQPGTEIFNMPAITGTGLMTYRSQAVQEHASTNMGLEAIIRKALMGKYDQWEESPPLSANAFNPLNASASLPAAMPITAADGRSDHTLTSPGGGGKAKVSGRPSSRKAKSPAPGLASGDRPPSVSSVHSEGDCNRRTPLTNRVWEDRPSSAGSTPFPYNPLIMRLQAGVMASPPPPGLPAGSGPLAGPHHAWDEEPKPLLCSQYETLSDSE
Excerpt: as §3, §4

[11] = tested on: histone acetyltransferase (HAT) activity, A549 cells
Description: (a) Cells were stimulated with LPS (3 ng/ml) for 24 hours in the presence or absence of theophylline (10^−5 M) or Dex (10^−6 M). Total cellular proteins were extracted and histone acetylase activity measured. (b) GM-CSF release into the culture medium was measured after 6 hours by ELISA.
After incubation for 10 min at 37° C. cells were stimulated for 6 hr. Histones were isolated and separated by electrophoresis on SDS-16% polyacrylamide gel. Gels were stained with Coommasie brilliant blue and the core histones (H2A, H2B, H3 and H4) excised. The radioactivity in extracted core histones was determined by liquid scintillation counting and normalised to protein level.

HDAC2 [12] = test: HDAC2 expression in A549 cells (Western blot); assay type: cell-based; settings: for HDAC2 expression: A549 cells
Excerpt: […]. Proteins were extracted and size fractionated by SDS-PAGE and HDAC2 detected by Western blotting. Densitometric analysis of HDAC2 expression is shown graphically in the lower panel. Data from 3 separate experiments was normalised to β-actin and results expressed as mean±SEM. *p<0.05.
as §5
Immunoprecipitates, whole cell extractions or isolated histones were measured by SDS-PAGE and Western blot analysis using ECL (Amersham, Amersham, UK). Proteins were size-fractionated by SDS-PAGE and transferred to Hybond-ECL membranes. Immunoreactive bands were detected by ECL.
as §2

HDAC2 [13] = test: HDAC2 expression in bronchial biopsies of treated asthmatics (Western blot); assay type: in vivo, human; settings: placebo 0.28±0.08, p=0.1
Excerpt: as §1, §2

HDAC1 [14] = target: T3, HDAC1 (Homo sapiens, UniProt Q13547); test: Immunoprecipitated HDAC1 activity; assay type: cell-based; settings: theophylline 10^−5 M
T3 construct: endogenous in cells
T3 sequence (Q13547 whole entry): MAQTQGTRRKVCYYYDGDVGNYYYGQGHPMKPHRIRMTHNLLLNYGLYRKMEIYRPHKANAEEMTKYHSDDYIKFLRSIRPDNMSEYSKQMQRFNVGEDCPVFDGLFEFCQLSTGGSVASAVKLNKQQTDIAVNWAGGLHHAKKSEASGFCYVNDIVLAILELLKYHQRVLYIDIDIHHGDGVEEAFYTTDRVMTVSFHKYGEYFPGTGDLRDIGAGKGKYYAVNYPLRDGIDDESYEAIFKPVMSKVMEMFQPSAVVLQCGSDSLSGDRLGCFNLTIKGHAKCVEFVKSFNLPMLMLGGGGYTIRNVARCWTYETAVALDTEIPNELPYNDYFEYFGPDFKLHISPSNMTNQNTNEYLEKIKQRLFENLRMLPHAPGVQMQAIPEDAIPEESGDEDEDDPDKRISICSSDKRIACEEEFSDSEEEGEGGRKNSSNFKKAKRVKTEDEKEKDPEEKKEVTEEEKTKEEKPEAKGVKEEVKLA
Excerpt: as §3, §4

[15] = tested on: histone deacetylase (HDAC) activity, A549 cells; test: Histone deacetylation activity in total cellular extracts of treated A549 cells
Description: (B) Effect of Trichostatin A (TSA) on histone deacetylase activity and histone H4 acetylation. Cells were treated with increasing concentrations of TSA for 6 hrs before total cellular proteins were isolated and analysed for deacetylase activity and also histone acetylation by Western blotting using an anti-pan acetylated histone H4 antibody.
Effect of theophylline on histone deacetylase (HDAC) activity in A549 cells. (a) Cells were stimulated with LPS (3 ng/ml) for 24 hours in the presence or absence of theophylline (10^−5 M) or Dex (10^−6 M). Total cellular proteins were extracted and histone deacetylase activity measured. (b) Direct effect of theophylline on HDAC activity. […] Results are expressed as mean±SEM (n=3-5, *p<0.05, **p<0.01).

[16] = theophylline 10^−5 M, dexamethasone 10^−10 M

Cn1c(=O)c2[nH]cnc2n(C)c1=O [theophylline]
HDAC1 expression relative to β-actin (HDAC1 [1]): 0.44±0.06 | HDAC2 activity (HDAC2 [2]): without having any effect | total HDAC activity in biopsies (HDAC activity [3]): 111±15 dpm/mg protein | BAL eosinophils [4]: 1.7±0.28% | FEV1 [4]: 3.4±0.09 | FEV1 (% predicted) [4]: 92.8 ± 2.6% | Muscosal eosinophils [4]: 1.19 ± 0.43 | NO [4]: 23.2 ± 3.8 | PC20 methacholine [4]: 1.2±0.35 | PEF am [4]: 469±19 | mucosal eosinophils [4]: 1.19±0.43 eosinophils/high powered field | BAL eosinophils ([4]; listed as Theophylline): 1.7 ± 0.28% | FEV1 ([4]; listed as Theophylline): 3.42 ± 0.09 | PC20 methacholine ([4]; listed as Theophylline): 1.2 ± 0.35 | PEF am ([4]; listed as Theophylline): 469 ± 19 | HDAC1 expression (HDAC1 [5]; 24 hours, theophylline 10^−4 M): induced | HDAC1 expression (HDAC1 [5]; 24 hrs): no effect | direct effect on HDAC activity at higher concentrations (HDAC activity [6]; 10^−4-10^−3 M): inhibited HDAC activity | concentration of maximum increase in HDAC activity (direct) (HDAC activity [6]; nuclear extracts): 10^−5 M | direct effect on HDAC activity (HDAC activity [6]; nuclear extracts, IBMX 500 μM, rolipram 10 μM, CGS-15943 10 μM): concentration-dependent increase | LPS-induced IL-8 release [7]: no effect | HDAC activity at 10^−4 M [8]: decreased to control levels | concentration of maximal increase in HDAC activity [8]: 10^−5 M | HDAC activity ([8]; rolipram 10 μM): concentration-dependent increase | LPS-induced GM-CSF release ([9]; LPS 3 ng/ml): not associated with a significant reduction | GM-CSF release after IL-1β plus H2O2, each alone [9, 16]: neither theophylline (10^−5 M) nor dexamethasone (10^−10 M) alone had any effect | IL-1β-stimulated GM-CSF release, each alone [9, 16]: failed to inhibited | decrease in IL-1β-stimulated GM-CSF release ([9]; theophylline 10^−5 M, dexamethasone 10^−10 M, alone or combined): 20% | HDAC activity, macrophages from non-smokers [10]: significantly enhanced | HDAC3 activity (HDAC3): significant induction | basal HAT activity [11]: Neither theophylline nor dexamethasone had any effect | LPS-induced whole cell HAT activity ([11]; LPS 3 ng/ml, 24 hrs): significant concentration-dependent inhibitory effect | IL-1β+H2O2-induced reduction in HDAC2 expression (HDAC2 [12]; 24 hrs): restored | HDAC2 expression (HDAC2 [12]; 24 hrs): no effect | HDAC2 expression (HDAC2 [12]; 24 hours): no effect | HDAC2 expression relative to β-actin (HDAC2 [13]): 0.49±0.20 | HDAC1 activity (HDAC1 [14]): significant induction | total cell HDAC activity after IL-1β plus H2O2 ([15]; 4 hrs, theophylline pre-treatment 10^−5 M, 10 min): significantly increased | total cell HDAC activity in LPS-stimulated cells ([15]; pretreatment 60 min, up to 10^−5 M, measured at 24 hrs): significantly increased
